Values of other authors, collected in PubChem BioAssay AID1259409 (Chemical Carcinogenesis Research Information System (CCRIS), 2018).

Test system: rodent chemically induced tumor inhibition, incidence and multiplicity
Assay: CCRIS tumor inhibitor studies

SMILES: S=C=NCCCCCCc1ccccc1
- tumour outcome (control, treated, inhibition, significance) (Carcinogen: 4-(METHYLNITROSAMINO)-1-(3-PYRIDYL)-1-BUTANONE, 64091-91-4, Dose [Inhibitor]: 0, 1 UMOL/G DIET FOR DURATION OF STUDY BEGINNING 1 WK PRIOR TO CARCINOGEN TREATMENT (STUDY DURATION: 112 WK), Route [Inhibitor]: ORAL, Species: RAT, Strain/Sex: F344/MALE, Target Tissue: Type of Lesion: PANCREAS: ACINAR ADENOMA, Dose [Carcinogen]: 2 PPM IN DRINKING WATER FOR 111 WK, Promoter: NONE USED): 1/52 (2%), 6/50 (12%), -500%, p=0.04
- tumour outcome (control, treated, inhibition, significance) (Carcinogen: 4-(METHYLNITROSAMINO)-1-(3-PYRIDYL)-1-BUTANONE, 64091-91-4, Dose [Inhibitor]: 0, 1 UMOL/G DIET FOR DURATION OF STUDY BEGINNING 1 WK PRIOR TO CARCINOGEN TREATMENT (STUDY DURATION: 112 WK), Route [Inhibitor]: ORAL, Species: RAT, Strain/Sex: F344/MALE, Target Tissue: Type of Lesion: PANCREAS: MALIGNANT TUMOR, Dose [Carcinogen]: 2 PPM IN DRINKING WATER FOR 111 WK, Promoter: NONE USED): 4/52 (8%), 1/50 (2%), 75%, not significant
- tumour outcome (control, treated, inhibition, significance) (Carcinogen: 4-(METHYLNITROSAMINO)-1-(3-PYRIDYL)-1-BUTANONE, 64091-91-4, Dose [Inhibitor]: 0, 5 UMOL IN 0.1 ML CORN OIL ONCE 2 HR PRIOR TO CARCINOGEN DOSE (STUDY DURATION: 16 WK), Route [Inhibitor]: GAVAGE, Species: MOUSE, Strain/Sex: STRAIN-A/FEMALE, Target Tissue: Type of Lesion: LUNG: ADENOMA, Dose [Carcinogen]: 10 UMOL IN 0.1 ML SALINE ONCE, Promoter: NONE USED): 100%, 25%, 75%, p<0.01
- tumour outcome (control, treated, inhibition, significance) (Carcinogen: 4-(METHYLNITROSAMINO)-1-(3-PYRIDYL)-1-BUTANONE, 64091-91-4, Dose [Inhibitor]: 0, 438 PPM IN DIET FOR 22 WK BEGINNING 1 WK PRIOR TO CARCINOGEN DOSE (STUDY DURATION: 98 WK), Route [Inhibitor]: ORAL, Species: RAT, Strain/Sex: F344/MALE, Target Tissue: Type of Lesion: NASAL CAVITY: TUMOR, Dose [Carcinogen]: 1.5 MG/KG BW 3/WK FOR 20 WK, Promoter: NONE USED): 28/36 (78%), 27/36 (75%), 4%, not significant
- tumour outcome (control, treated, inhibition, significance) (Carcinogen: 4-(METHYLNITROSAMINO)-1-(3-PYRIDYL)-1-BUTANONE, 64091-91-4, Dose [Inhibitor]: 0, 438 PPM IN DIET FOR 22 WK BEGINNING 1 WK PRIOR TO CARCINOGEN TREATMENT (STUDY DURATION: 98 WK), Route [Inhibitor]: ORAL, Species: RAT, Strain/Sex: F344/MALE, Target Tissue: Type of Lesion: LUNG: TUMOR, Dose [Carcinogen]: 1.5 MG/KG BW 3/WK FOR 20 WK, Promoter: NONE USED): 22/33 (67%), 7/36 (19%), 72%, p<0.01
- tumour outcome (control, treated, inhibition, significance) (Carcinogen: 4-(METHYLNITROSAMINO)-1-(3-PYRIDYL)-1-BUTANONE, 64091-91-4, Dose [Inhibitor]: 0, 876 PPM IN DIET FOR 22 WK BEGINNING 1 WK PRIOR TO CARCINOGEN TREATMENT (STUDY DURATION: 98 WK), Route [Inhibitor]: ORAL, Species: RAT, Strain/Sex: F344/MALE, Target Tissue: Type of Lesion: LUNG: TUMOR, Dose [Carcinogen]: 1.5 MG/KG BW 3/WK FOR 20 WK, Promoter: NONE USED): 22/33 (67%), 8/34 (24%), 64%, p<0.01
- tumour outcome (control, treated, inhibition, significance) (Carcinogen: 4-(METHYLNITROSAMINO)-1-(3-PYRIDYL)-1-BUTANONE, 64091-91-4, Dose [Inhibitor]: 0, 876 PPM IN DIET FOR 22 WK BEGINNING 1 WK PRIOR TO CARCINOGEN TREATMENT (STUDY DURATION: 98 WK), Route [Inhibitor]: ORAL, Species: RAT, Strain/Sex: F344/MALE, Target Tissue: Type of Lesion: NASAL CAVITY: TUMOR, Dose [Carcinogen]: 1.5 MG/KG BW 3/WK FOR 20 WK, Promoter: NONE USED): 28/36 (78%), 27/36 (75%), 4%, not significant
- tumour outcome (control, treated, inhibition, significance) (Carcinogen: 4-(METHYLNITROSAMINO-1-(3-PYRIDYL)-1-BUTANONE, 64091-91-4, Dose [Inhibitor]: O, 0.2 UMOL 1/D FOR 4 D ADMINISTERED PRIOR TO CARCINOGEN TREATMENT (STUDY DURATION: 116 D), Route [Inhibitor]: GAVAGE, Species: MOUSE, Strain/Sex: STRAIN A, Target Tissue: Type of Lesion: LUNG: ADENOMA, Dose [Carcinogen]: 10 UMOL ONCE 2 HR AFTER FINAL DOSE OF INHIBITOR, Promoter: NONE USED): 100%, 70%, 30%, p<0.05
- outcome (Carcinogen: BENZO[A]PYRENE, 50-32-8, Dose [Inhibitor]: 0, 5 UMOL IN ACETONE 4 HR PRIOR TO CARCINOGEN DOSE (STUDY DURATION: 20 WK), Route [Inhibitor]: DERMAL, Species: MOUSE, Strain/Sex: STRAIN-A/FEMALE, Target Tissue: Type of Lesion: SKIN: TUMOR, Dose [Carcinogen]: 0.1 UMOL IN ACETONE ONCE, Promoter: 12-O-TETRADECANOYLPHORBOL-13-ACETATE, 16561-29-8): 70%, 90%, 29%, not significant at 15 wk; 95%, 95%, 0%, not significant at 20 wk
- tumour outcome (control, treated, inhibition, significance) (Carcinogen: N-BUTYL-N(4-HYDROXYBUTYL)NITROSAMINE (3817-11-6), Dose [Inhibitor]: 0.5 UMOL/G IN DIET BEGINNING 1 WK BEFORE CARCINOGEN EXPOSURE (STUDY DURATION: 16 WK), Route [Inhibitor]: ORAL, Species: RAT, Strain/Sex: WISTAR/MALE, Target Tissue: Type of Lesion: URINARY BLADDER: PAPILLOMA, Dose [Carcinogen]: 0.025% IN DRINKING WATER FOR 15 WK, Promoter: NONE USED): 38/40 (95%), 24/30 (80%), 16%, not significant
- tumour outcome (control, treated, inhibition, significance) (Carcinogen: N-NITROSOMETHYLBENZYLAMINE [937-40-6], Dose [Inhibitor]: 0, 1 MMOL/KG DIET IMMEDIATELY POST LAST CARCINOGEN DOSE (STUDY DURATION: 25 WK), Route [Inhibitor]: ORAL, Species: RAT, Strain/Sex: F344/MALE, Target Tissue: Type of Lesion: ESOPHAGUS: TUMOR, Dose [Carcinogen]: 0.5 MG/KG BW IN 20% DMSO 3 TIMES/WK FOR 5 WK (STUDY DURATION: 25 WK), Promoter: NONE): 100%, 100%, 0%, not significant
- tumour outcome (control, treated, inhibition, significance) (Carcinogen: N-NITROSOMETHYLBENZYLAMINE [937-40-6], Dose [Inhibitor]: 0, 2.5 MMOL/KG DIET IMMEDIATELY POST LAST CARCINOGEN DOSE (STUDY DURATION: 25 WK), Route [Inhibitor]: ORAL, Species: RAT, Strain/Sex: F344/MALE, Target Tissue: Type of Lesion: ESOPHAGUS: TUMOR, Dose [Carcinogen]: 0.5 MG/KG BW IN 20% DMSO 3 TIMES/WK FOR 5 WK (STUDY DURATION: 25 WK), Promoter: NONE): 100%, 100%, 0%, not significant
